How the values were obtained:
[1] = target: horse spleen apoferritin (HSAF) (Equus caballus, UniProt P02791); experiment: isothermal titration calorimetry; format: binding
[2] = target: T1, Shaw2 K+ channel (Shaw2 F335A) (Drosophila melanogaster, UniProt P17972, F335A); experiment: two-electrode voltage clamp, Xenopus oocytes; format: cell-based; details: read-out: % inhibition at 2 mM
T1 sequence (P17972 1-498 F335A): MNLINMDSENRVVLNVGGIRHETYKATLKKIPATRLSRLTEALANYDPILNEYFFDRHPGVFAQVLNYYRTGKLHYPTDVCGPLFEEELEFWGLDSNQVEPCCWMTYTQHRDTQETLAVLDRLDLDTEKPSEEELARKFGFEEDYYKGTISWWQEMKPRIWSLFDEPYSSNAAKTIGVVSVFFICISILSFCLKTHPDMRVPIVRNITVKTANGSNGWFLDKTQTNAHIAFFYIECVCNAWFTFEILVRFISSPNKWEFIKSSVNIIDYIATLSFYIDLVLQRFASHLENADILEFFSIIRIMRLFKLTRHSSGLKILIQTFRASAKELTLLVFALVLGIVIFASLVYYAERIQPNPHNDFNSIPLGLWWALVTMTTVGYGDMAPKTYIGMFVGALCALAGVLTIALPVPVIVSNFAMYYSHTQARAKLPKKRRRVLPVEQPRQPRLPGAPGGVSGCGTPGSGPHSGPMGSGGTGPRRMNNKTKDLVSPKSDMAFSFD

Sequence of horse spleen apoferritin (HSAF) (P02791 2-175): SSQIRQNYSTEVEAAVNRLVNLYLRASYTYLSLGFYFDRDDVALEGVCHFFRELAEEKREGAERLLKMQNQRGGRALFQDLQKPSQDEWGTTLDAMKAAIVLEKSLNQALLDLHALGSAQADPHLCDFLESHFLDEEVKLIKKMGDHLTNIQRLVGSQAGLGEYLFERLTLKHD
Sequence of horse spleen apoferritin (HSAF) (Q8MIP0 2-182 partner): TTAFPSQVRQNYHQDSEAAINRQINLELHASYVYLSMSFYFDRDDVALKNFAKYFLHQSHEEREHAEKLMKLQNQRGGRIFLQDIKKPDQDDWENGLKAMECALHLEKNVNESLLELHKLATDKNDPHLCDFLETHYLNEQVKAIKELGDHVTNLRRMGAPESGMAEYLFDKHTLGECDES

SMILES | Kd [1] [µM] | inhibition at 2000 µM [2] [%]
FC(F)(F)C(Cl)OC(F)(F)C1N=N1 (racemic) [compound 1, azi-isoflurane] | 6 ± 1 | 77 ± 0.2
FC(F)OC(Cl)C(F)(F)F (stereo not shown) [isoflurane] | 58 ± 2 | 67

From PMC2837340 (ACS Chemical Neuroscience, 2009)
